“And” between values parts separate entries of the source, which are not always exact repeats. Equal values may be shown once.
What was measured:
[1] = test system: disseminated L1210 murine leukemia; assay: Antileukemic activity against disseminated L1210 leukemia in mice; assay type: in vivo
Excerpt: For these experiments Ia was solubilized in [Cremophor®/EtOH=6.5:3.5]/[normal saline]=20/80 v/v, while CPT-11 was solubilized in water.

[2] = test system: intracranially implanted P388 tumor cells; assay: Activity against intracranially transplanted P388 murine leukemia; assay type: in vivo, mice
Procedure: Brain tumors/metastases are generally unresponsive largely because cytotoxic drugs fail to cross the blood brain barrier. […] The compound was administered i.v. on days 1,5,9. Results reported in Tab.

[3] = Crossing of the blood brain barrier
[4] = Ia alone 2.9 mg/kg/day iv day +3
[5] = Ia alone 3.8 mg/kg/day iv day +3
[6] = CPT-11 alone 20 mg/kg/day iv days +1,2

SMILES	ILS % (increase in life span) [1, 4] [%]	LTS (Long Term Survivors >60 days) [1, 4]	Tox (number of toxic deaths/number of mice) [1, 4]	ILS % (increase in life span) [1, 5] [%]	LTS (Long Term Survivors >60 days) [1, 5]	Tox (number of toxic deaths/number of mice) [1, 5]	Tox (number of toxic deaths/number of mice) ([2]; Ia 2.1 mg/kg/day i.v. days 1, 5, 9)	ILS % (increase in life span) ([2]; Ia 2.1 mg/kg/day i.v. days 1, 5, 9, P388 10^4/mouse intracranially day 0) [%]	Tox (number of toxic deaths/number of mice) ([2]; Ia 2.7 mg/kg/day i.v. days 1, 5, 9)	ILS % (increase in life span) ([2]; Ia 2.7 mg/kg/day i.v. days 1, 5, 9 (optimal cumulative dose 8.1 mg/kg)) [%]	crossing of the blood brain barrier [3]	LTS (Long Term Survivors >60 days) [1, 6]	Tox (number of toxic deaths/number of mice) [1, 6]	ILS % (increase in life span) ([1]; CPT-11 alone 20 mg/kg/day iv days +1,2, L1210 10^5/mouse iv day 0) [%]
CC(=O)C1(O)Cc2c(O)c3c(c(O)c2C(OC2CC(N4CC4)C(OS(C)(=O)=O)C(C)O2)C1)C(=O)c1ccccc1C3=O (centres unmarked) [Ia, 4-demethoxy-3′-deamino-3′-aziridinyl-4′-methansulfonyl daunorubicin]	92	0/10	without toxicity and 0/10	108	0/10	without toxicity and 0/10	0/20	44	1/20	46	crosses the blood brain barrier	–	–	–
CCc1c2c(nc3ccc(OC(=O)N4CCC(N5CCCCC5)CC4)cc13)-c1cc3c(c(=O)n1C2)COC(=O)[C@]3(O)CC [CPT-11, Irinotecan, reference compound]	–	–	–	–	–	–	–	–	–	–	–	1/10	without toxicity and 0/10	100
